Source: patent EP4501917A1, “3,4-DIHYDROQUINOXALINE-2-CARBOXIMIDE DERIVATIVE COMPOUND AND PHARMACEUTICAL COMPOSITION COMPRISING SAME FOR PREVENTING OR TREATING CANCER DISEASE” (Daegu-Gyeongbuk Medical Innovation Foundation, priority 2022, dated 2023)

Legend:
[1] = molecular target: T1, HDAC8 (Homo sapiens, UniProt Q9BY41); experiment: HDAC8 inhibitory activity analysis (in vitro), RFU analysis, HDAC Fluorogenic assay kit; assay type: biochemical; settings: for RFU (%): compound final concentration 10 µM, HDAC substrate 2A 20 µM, positive control (1% DMSO) set to 100, lower = more inhibition; for inhibitory activity against HDAC8: result in words, summary of Table 2, 10 µM
T1 construct: purchased BPS bioscience
T1 sequence (Q9BY41 1-377): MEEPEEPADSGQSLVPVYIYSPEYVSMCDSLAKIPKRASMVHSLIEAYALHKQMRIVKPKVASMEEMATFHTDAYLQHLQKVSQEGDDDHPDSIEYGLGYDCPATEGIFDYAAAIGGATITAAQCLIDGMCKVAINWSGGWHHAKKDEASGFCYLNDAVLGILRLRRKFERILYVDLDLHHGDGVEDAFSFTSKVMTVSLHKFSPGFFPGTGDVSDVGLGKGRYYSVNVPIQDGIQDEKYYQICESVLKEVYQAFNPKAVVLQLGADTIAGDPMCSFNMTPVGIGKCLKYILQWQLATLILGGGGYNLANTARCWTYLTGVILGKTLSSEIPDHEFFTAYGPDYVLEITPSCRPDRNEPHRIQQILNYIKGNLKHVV
Experimental: The compound of the Example was diluted to 1 mM (1% DMSO concentration) using DMSO to obtain a final concentration of 10 µM, and prepared by diluting 1/10 with assay buffer. In a 96-well black round-bottom plate, 5 µL of the diluted compound of the Example, 5 µL of the diluted HDAC substrate 2A, 5 µL of BSA (1 mg/mL), 5 µL of the HDAC8 enzyme diluted to an appropriate concentration, and 30 µL of assay buffer were added, and the enzyme reaction was performed at 37°C for 30 minutes. […] Afterwards, 50 µL of 2X HDAC developer was added to each well. After reacting for 15 minutes at room temperature, the fluorescence values at excitation wavelengths of 350-380 nm and emission wavelengths of 440-460 nm were measured using a microplate reader (Synergy Neo).

[2] = test system: PC-3 prostate cancer cells; experiment: Prostate cancer cell growth inhibition, CCK-8 assay; assay type: cell-based, human; settings: PC-3 cells, FIG. 1, result in words
Experimental: PC-3, a human-derived prostate cancer cell line, was cultured with RPMI1640 (10% fetal bovine serum, 1% Penicillin Streptomycin) culture medium at 37°C, 5% CO2 condition. All cells in the experiment were subcultured when they reached a confluency of approximately 80% to 90%, and only cells that had not passed 20 passages were used.
After culturing, 10 µL CCK-8 reagent was added and the absorbance was measured after 1 hour. The absorbance was measured at 450 nm using a microplate reader [BMG Labtech (Offenburg, Germany)].

[3] = test system: Liver cancer cells Huh-7; experiment: Liver cancer cell growth inhibition, CellTiter-Glo Luminescent Cell Viability Assay; assay type: cell-based; settings: Huh-7 cells, various concentrations, day 1, FIG. 6; result in words
Experimental: In addition, an analysis of liver cancer growth inhibitory activity was performed. Liver cancer cells Huh-7 cells were dispensed in a 96-well plate at 1 × 10^4 cells/ml, and after 20 hours, PCI34051, Example 27, and Example 35 were added at various concentrations, and cultured for 24 and 48 hours at 37°C in a 5% CO2 atmosphere. After culturing, 100 µl CellTiter-Glo Luminescent Cell Viability Assay reagent was added and the luminescence signal was measured after 0.5-1 hour. The luminescence signal was measured using IVIS [PerkinElmer, (Waltham, USA)].

Structure (SMILES) | RFU (%) [1] | inhibitory activity against HDAC8 [1] | also measured
Cc1cc2nc(C(=O)NCc3ccc(F)cc3)c(=O)n(C[C@H](O)[C@H](O)[C@H](O)CO)c2cc1C [Example 4, N-(4-fluorobenzyl)-6,7-dimethyl-3-oxo-4-((2S,3S,4R)-2,3,4,5-tetrahydroxypentyl)-3,4-dihydroquinoxaline-2-carboxamide] | 85.71% |  | 
Cc1cc2nc(C(=O)NCc3cc(Cl)cc(Cl)c3)c(=O)n(C[C@H](O)[C@H](O)[C@H](O)CO)c2cc1C [Example 7, N-(3,5-dichlorobenzyl)-6,7-dimethyl-3-oxo-4-((2S,3S,4R)-2,3,4,5-tetrahydroxypentyl)-3,4-dihydroquinoxaline-2-carboxamide] | 54.79% |  | 
Cc1cc2nc(C(=O)NCc3ccc(Cl)c(Cl)c3)c(=O)n(C[C@H](O)[C@H](O)[C@H](O)CO)c2cc1C [Example 8, N-(3,4-dichlorobenzyl)-6,7-dimethyl-3-oxo-4-((2S,3S,4R)-2,3,4,5-tetrahydroxypentyl)-3,4-dihydroquinoxaline-2-carboxamide] | 85.37% |  | 
Cc1cc2nc(C(=O)NCCc3ccc(Cl)cc3Cl)c(=O)n(C[C@H](O)[C@H](O)[C@H](O)CO)c2cc1C [Example 9, N-(2,4-dichlorophenethyl)-6,7-dimethyl-3-oxo-4-((2S,3S,4R)-2,3,4,5-tetrahydroxypentyl)-3,4-dihydroquinoxaline-2-carboxamide] | 66.28% |  | 
Cc1cc2nc(C(=O)Nc3cc(-c4ccc(Br)cc4)no3)c(=O)n(C[C@H](O)[C@H](O)[C@H](O)CO)c2cc1C [Example 10, N-(3-(4-bromophenyl)isoxazol-5-yl)-6,7-dimethyl-3-oxo-4-((2S,3S,4R)-2,3,4,5-tetrahydroxypentyl)-3,4-dihydroquinoxaline-2-carboxamide] | 16.61% | inhibitory activity similar to TSA or SAHA | 
Cc1cc2nc(C(=O)Nc3nnc(-c4ccc(Br)cc4)s3)c(=O)n(C[C@H](O)[C@H](O)[C@H](O)CO)c2cc1C [Example 11, N-(5-(4-bromophenyl)-1,3,4-thiadiazol-2-yl)-6,7-dimethyl-3-oxo-4-((2S,3S,4R)-2,3,4,5-tetrahydroxypentyl)-3,4-dihydroquinoxaline-2-carboxamide] | 63.24% |  | 
Cc1cc2nc(C(=O)Nc3cc(-c4ccc(Br)cc4)n[nH]3)c(=O)n(C[C@H](O)[C@H](O)[C@H](O)CO)c2cc1C [Example 12, N-(3-(4-bromophenyl)-1H-pyrazol-5-yl)-6,7-dimethyl-3-oxo-4-((2S,3S,4R)-2,3,4,5-tetrahydroxypentyl)-3,4-dihydroquinoxaline-2-carboxamide] | 58.97% |  | 
Cc1cc2nc(C(=O)NCc3nc4ccccc4[nH]3)c(=O)n(C[C@H](O)[C@H](O)[C@H](O)CO)c2cc1C [Example 24, N-((1H-benzo[d]imidazol-2-yl)methyl)-6,7-dimethyl-3-oxo-4-((2S,3S,4R)-2,3,4,5-tetrahydroxypentyl)-3,4-dihydroquinoxaline-2-carboxamide] | 42.03% |  | 
COC(=O)C1CCC(NC(=O)c2nc3cc(C)c(C)cc3n(C[C@H](O)[C@H](O)[C@H](O)CO)c2=O)C1 (stereo partly drawn) [Example 33, methyl 3-(6,7-dimethyl-3-oxo-4-((2S,3S,4R)-2,3,4,5-tetrahydroxypentyl)-3,4-dihydroquinoxaline-2-carboxamido)cyclopentane-1-carboxylate] | 69.48% |  | 
Cc1cc2nc(C(=O)NCc3ccc4[nH]cnc4c3)c(=O)n(C[C@H](O)[C@H](O)[C@H](O)CO)c2cc1C [Example 34, N-((1H-benzo[d]imidazol-5-yl)methyl)-6,7-dimethyl-3-oxo-4-((2S,3S,4R)-2,3,4,5-tetrahydroxypentyl)-3,4-dihydroquinoxaline-2-carboxamide] | 34.05% | inhibitory activity similar to TSA or SAHA | 
Cc1cc2nc(C(=O)Nc3nc4c(F)cccc4[nH]3)c(=O)n(C[C@H](O)[C@H](O)[C@H](O)CO)c2cc1C [Example 35, N-(4-fluoro-1H-benzo[d]imidazol-2-yl)-6,7-dimethyl-3-oxo-4-((2S,3S,4R)-2,3,4,5-tetrahydroxypentyl)-3,4-dihydroquinoxaline-2-carboxamide] | 8.23% | inhibitory activity similar to TSA or SAHA | cell viability ([2]; after 24 hours): concentration-dependent inhibition of cancer cell viability; cell viability ([2]; after 48 hours): cell viability was restored; cell viability [3]: concentration-dependent inhibition of cancer cell viability
Cc1cc2nc(C(=O)NCc3ccc(C(=O)NO)cc3)c(=O)n(C[C@H](O)[C@H](O)[C@H](O)CO)c2cc1C [Example 47, N-(4-(hydroxycarbamoyl)benzyl)-6,7-dimethyl-3-oxo-4-((2S,3S,4R)-2,3,4,5-tetrahydroxypentyl)-3,4-dihydroquinoxaline-2-carboxamide] | 53.58% |  | 
Cc1cc2nc(C(=O)Nc3ccc(C(=O)NO)cc3)c(=O)n(C[C@H](O)[C@H](O)[C@H](O)CO)c2cc1C [Example 48, N-(4-(hydroxycarbamoyl)phenyl)-6,7-dimethyl-3-oxo-4-((2S,3S,4R)-2,3,4,5-tetrahydroxypentyl)-3,4-dihydroquinoxaline-2-carboxamide] | 10.48% | inhibitory activity similar to TSA or SAHA | 
Cc1cc2nc(C(=O)NCc3ccc(CC(=O)NO)cc3)c(=O)n(C[C@H](O)[C@H](O)[C@H](O)CO)c2cc1C [Example 49, N-(4-(2-(hydroxyamino)-2-oxoethyl)benzyl)-6,7-dimethyl-3-oxo-4-((2S,3S,4R)-2,3,4,5-tetrahydroxypentyl)-3,4-dihydroquinoxaline-2-carboxamide] | 35.15% | inhibitory activity similar to TSA or SAHA | 
Cc1cc2nc(C(=O)NCc3cccc(C(=O)NO)c3)c(=O)n(C[C@H](O)[C@H](O)[C@H](O)CO)c2cc1C [Example 50, N-(3-(hydroxycarbamoyl)benzyl)-6,7-dimethyl-3-oxo-4-((2S,3S,4R)-2,3,4,5-tetrahydroxypentyl)-3,4-dihydroquinoxaline-2-carboxamide] | 51.23% |  | 
Cc1cc2nc(C(=O)Nc3cc(C(=O)NO)ccc3C)c(=O)n(C[C@H](O)[C@H](O)[C@H](O)CO)c2cc1C [Example 51, N-(5-(hydroxycarbamoyl)-2-methylphenyl)-6,7-dimethyl-3-oxo-4-((2S,3S,4R)-2,3,4,5-tetrahydroxypentyl)-3,4-dihydroquinoxaline-2-carboxamide] | 5.81% | inhibitory activity similar to TSA or SAHA | 
Cc1cc2nc(C(=O)NC3CCC(C(=O)NO)C3)c(=O)n(C[C@H](O)[C@H](O)[C@H](O)CO)c2cc1C (stereo partly drawn) [Example 52, N-(3-(hydroxycarbamoyl)cyclopentyl)-6,7-dimethyl-3-oxo-4-((2S,3S,4R)-2,3,4,5-tetrahydroxypentyl)-3,4-dihydroquinoxaline-2-carboxamide] | 41.96% |  | 
COc1ccc(Cn2ccc3ccc(C(=O)NO)cc32)cc1 [PCI-34051, N-hydroxy-1-(4-methoxybenzyl)-1H-indole-6-carboxamide, reference compound] | 1.86% |  | cell viability [3]: concentration-dependent inhibition of cancer cell viability
O=C(CCCCCCC(=O)Nc1ccccc1)NO [SAHA, suberoylanilide hydroxamic acid, reference compound] | 38.57% |  | 
